Read-outs that look alike come from different tables or passages of the source.
Test system: pancreatic cancer cell lines (e.g. MIA PaCa-2)
Test: Cell based assay, cell viability (CellTiter-Glo), pancreatic cancer cell lines
Conditions: Homo sapiens
Description: Commercially available bladder cancer, prostate cancer, lung cancer, breast cancer, blood cancer, pancreatic cancer, colorectal cancer, brain cancer, neuroblastoma, melanoma, liver cancer, cervical carcinoma, ovarian cancer, renal cancer, and papilloma cell lines were each treated with trypsin-EDTA and cultured, followed by being seeded in each well of a 96 well plate. After 24 hours of treatment at constant temperature, the respective cells were treated with the candidate compound so that a final concentration became 0 to 2 μM. The treated cells were additionally cultured for 72 hours, and cell viability was measured by using an ATP detection method (CellTiter-Glo® Luminescent Cell Viability Assay, Promega).

[1] = pancreatic cancer cell line AsPC-1, 72 hours, read-out: IC50, AsPC-1
[2] = pancreatic cancer cell line BxPC-3, 72 hours, read-out: IC50, BxPC-3
[3] = pancreatic cancer cell line CFPAC-1, 72 hours, read-out: IC50, CFPAC-1
[4] = pancreatic cancer cell line Capan-1, 72 hours, read-out: IC50, Capan-1
[5] = pancreatic cancer cell line Capan-2, 72 hours, read-out: IC50, Capan-2
[6] = pancreatic cancer cell line MIA PaCa-2, 72 hours, read-out: IC50, MIA PaCa-2
[7] = pancreatic cancer cell line PANC-1, 72 hours, read-out: IC50, PANC-1

IC50 [1] [nM]	IC50 [2] [nM]	IC50 [3] [nM]	IC50 [4] [nM]	IC50 [5] [nM]	IC50 [6] [nM]	IC50 [7] [nM]	SMILES
> 2000	> 2000	> 10000	> 2000	> 2000	> 2000	> 2000	CC(=O)c1c([S+]([O-])c2ccccc2)[nH]c2c(Br)ccc(Cl)c2c1=O (centres unmarked) [Compound 13, 3-acetyl-8-bromo-5-chloro-2-(phenylsulfinyl)quinolin-4(1H)-one]
> 2000	> 2000	> 10000	> 2000	> 2000	> 2000	> 2000	COc1ccccc1Sc1[nH]c2c(Br)ccc(Cl)c2c(=O)c1C(C)=O [Compound 14, 3-acetyl-8-bromo-5-chloro-2-((2-methoxyphenyl)thio)quinolin-4(1H)-one]
> 2000	> 2000	> 10000	> 2000	> 2000	1630	> 2000	COc1ccccc1[S+]([O-])c1[nH]c2c(Br)ccc(Cl)c2c(=O)c1C(C)=O (centres unmarked) [Compound 15, 3-acetyl-8-bromo-5-chloro-2-((2-methoxyphenyl)sulfinyl)quinolin-4(1H)-one]
> 2000	> 2000	> 10000	> 2000	> 2000	> 2000	> 2000	CC(=O)c1c(Sc2ccc(Br)cc2)[nH]c2c(Br)ccc(Cl)c2c1=O [Compound 16, 3-acetyl-8-bromo-2-((4-bromophenyl)thio)-5-chloroquinolin-4(1H)-one]
> 2000	> 2000	> 10000	> 2000	> 2000	> 2000	> 2000	CC(=O)c1c([S+]([O-])c2ccc(Br)cc2)[nH]c2c(Br)ccc(Cl)c2c1=O (centres unmarked) [Compound 17, 3-acetyl-8-bromo-2-((4-bromophenyl)sulfinyl)-5-chloroquinolin-4(1H)-one]
> 2000	> 2000	> 10000	> 2000	> 2000	> 2000	> 2000	CSc1c(C(C)=O)c(=O)c2c(Cl)ccc(Br)c2n1C(C)=O [Compound 18, 1,1′-(8-bromo-5-chloro-2-(methylthio)-4-oxoquinoline-1,3(4H)-diyl)bis(ethan-1-one)]
> 2000	> 2000	> 10000	> 2000	> 2000	> 2000	> 2000	CC(=O)c1c([S+](C)[O-])n(C(C)=O)c2c(Br)ccc(Cl)c2c1=O (centres unmarked) [Compound 19, 1,1′-(8-bromo-5-chloro-2-(methylsulfinyl)-4-oxoquinoline-1,3(4H)-diyl)bis(ethan-1-one)]
> 2000	> 2000	> 10000	> 2000	> 2000	> 2000	> 2000	CC(=O)c1c([S+]([O-])Cc2ccccc2)n(C(=O)c2ccc(Br)cc2)c2c(Br)ccc(Cl)c2c1=O (centres unmarked) [Compound 20, 3-acetyl-2-(benzylsulfinyl)-8-bromo-1-(4-bromobenzoyl)-5-chloroquinolin-4(1H)-one]
> 2000	> 2000	> 10000	> 2000	> 2000	> 2000	> 2000	CC(=O)c1c(S(C)(=O)=O)n(C(=O)c2ccc(Br)cc2)c2c(Br)ccc(Cl)c2c1=O [Compound 21, 3-acetyl-8-bromo-1-(4-bromobenzoyl)-5-chloro-2-(methylsulfonyl)quinolin-4(1H)-one]
> 2000	> 2000	> 10000	> 2000	> 2000	> 2000	> 2000	CC(=O)c1c([S+](C)[O-])n(Cc2ccc(F)c(Cl)c2)c2c(Br)ccc(Cl)c2c1=O (centres unmarked) [Compound 22, 3-acetyl-8-bromo-5-chloro-1-(3-chloro-4-fluorobenzyl)-2-(methylsulfinyl)quinolin-4(1H)-one]
> 2000	> 2000	> 10000	> 2000	> 2000	> 2000	> 2000	CC(=O)c1c(SCc2ccccc2)n(C(=O)c2ccc(Br)cc2)c2c(Br)ccc(Cl)c2c1=O [Compound 23, 3-acetyl-2-(benzylthio)-8-bromo-1-(4-bromobenzoyl)-5-chloroquinolin-4(1H)-one]
> 2000	> 2000	> 10000	> 2000	> 2000	> 2000	> 2000	CC(=O)c1c(SC(C)C)[nH]c2c(Br)ccc(Cl)c2c1=O [Compound 24, 3-acetyl-8-bromo-5-chloro-2-(isopropylthio)quinolin-4(1H)-one]
> 2000	> 2000	> 10000	> 2000	> 2000	> 2000	> 2000	CC(=O)c1c([S+]([O-])C(C)C)[nH]c2c(Br)ccc(Cl)c2c1=O (centres unmarked) [Compound 25, 3-acetyl-8-bromo-5-chloro-2-(isopropylsulfinyl)quinolin-4(1H)-one]
> 2000	> 2000	> 10000	> 2000	> 2000	> 2000	> 2000	CC(=O)c1c([S+]([O-])C(C)c2ccccc2)[nH]c2c(Br)ccc(Cl)c2c1=O (centres unmarked) [Compound 26, 3-acetyl-8-bromo-5-chloro-2-((1-phenylethyl)sulfinyl)quinolin-4(1H)-one]
> 2000	> 2000	> 10000	> 2000	> 2000	> 2000	> 2000	CC(=O)c1c(SCc2cccc(C#N)c2)[nH]c2c(Br)ccc(Cl)c2c1=O [Compound 27, 3-(((3-acetyl-8-bromo-5-chloro-4-oxo-1,4-dihydroquinolin-2-yl)thio)methyl)benzonitrile]
> 2000	> 2000	> 10000	> 2000	> 2000	880	> 2000	CC(=O)c1c([S+]([O-])Cc2cccc(C#N)c2)[nH]c2c(Br)ccc(Cl)c2c1=O (centres unmarked) [Compound 28, 3-(((3-acetyl-8-bromo-5-chloro-4-oxo-1,4-dihydroquinolin-2-yl)sulfinyl)methyl)benzonitrile]
> 2000	> 2000	> 10000	> 2000	> 2000	> 2000	> 2000	CC(=O)c1c(SCc2ccc(F)c(Cl)c2)[nH]c2c(Br)ccc(Cl)c2c1=O [Compound 30, 3-acetyl-8-bromo-5-chloro-2-((3-chloro-4-fluorobenzyl)thio)quinolin-4(1H)-one]

Continued, molecule first:

SMILES	IC50 [1] [nM]	IC50 [2] [nM]	IC50 [3] [nM]	IC50 [4] [nM]	IC50 [5] [nM]	IC50 [6] [nM]	IC50 [7] [nM]
CC(=O)c1c([S+](C)[O-])[nH]c2c(Br)ccc(Cl)c2c1=O (centres unmarked) [Compound 1, 3-acetyl-8-bromo-5-chloro-2-(methylsulfinyl)quinolin-4(1H)-one]	> 2000	> 2000	> 10000	> 2000	> 2000	1590	> 2000
CSc1[nH]c2c(Br)ccc(Cl)c2c(=O)c1C(C)=O [Compound 2, 3-acetyl-8-bromo-5-chloro-2-(methylthio)quinolin-4(1H)-one]	> 2000	> 2000	> 10000	> 2000	> 2000	> 2000	> 2000
CC(=O)c1c(SCc2ccccc2)[nH]c2c(Br)ccc(Cl)c2c1=O [Compound 3, 3-acetyl-2-(benzylthio)-8-bromo-5-chloroquinolin-4(1H)-one]	> 2000	> 2000	> 10000	> 2000	> 2000	> 2000	> 2000
CC(=O)c1c([S+]([O-])Cc2ccccc2)nc2c(Br)ccc(Cl)c2c1O (centres unmarked) [Compound 4]	> 2000	> 2000	> 10000	> 2000	> 2000	1340	> 2000
CSc1c(C(C)=O)c(=O)c2c(Cl)ccc(Br)c2n1C [Compound 5, 3-acetyl-8-bromo-5-chloro-1-methyl-2-(methylthio)quinolin-4(1H)-one]	> 2000	> 2000	> 10000	> 2000	> 2000	> 2000	> 2000
CC(=O)c1c([S+](C)[O-])[nH]c2c(Cl)ccc(Cl)c2c1=O (centres unmarked) [Compound 6, 3-acetyl-5,8-dichloro-2-(methylsulfinyl)quinolin-4(1H)-one]	> 2000	> 2000	> 10000	> 2000	> 2000	1350	> 2000
CSc1c(C(C)=O)c(=O)c2cc(F)ccc2n1C [Compound 7, 3-acetyl-6-fluoro-1-methyl-2-(methylthio)quinolin-4(1H)-one]	> 2000	> 2000	> 10000	> 2000	> 2000	> 2000	> 2000
CSc1[nH]c2ccc(F)cc2c(=O)c1C(C)=O [Compound 8, 1-(6-fluoro-4-hydroxy-2-(methylthio)quinolin-3-yl)ethan-1-one]	> 2000	> 2000	> 10000	> 2000	> 2000	> 2000	> 2000
CC(=O)c1c([S+](C)[O-])n(C(=O)c2ccc(Br)cc2)c2c(Br)ccc(Cl)c2c1=O (centres unmarked) [Compound 9, 3-acetyl-8-bromo-1-(4-bromobenzoyl)-5-chloro-2-(methylsulfinyl)quinolin-4(1H)-one]	> 2000	> 2000	> 10000	> 2000	> 2000	1030	> 2000
CC(=O)c1c(SCc2ccc(Cl)cc2)[nH]c2c(Br)ccc(Cl)c2c1=O [Compound 10, 3-acetyl-8-bromo-5-chloro-2-((4-chlorobenzyl)thio)quinolin-4(1H)-one]	> 2000	> 2000	> 10000	> 2000	> 2000	> 2000	> 2000
CC(=O)c1c([S+]([O-])Cc2ccc(Cl)cc2)[nH]c2c(Br)ccc(Cl)c2c1=O (centres unmarked) [Compound 11, 3-acetyl-8-bromo-5-chloro-2-((4-chlorobenzyl)sulfinyl)quinolin-4(1H)-one]	> 2000	> 2000	> 10000	> 2000	> 2000	> 2000	> 2000
CC(=O)c1c(Sc2ccccc2)[nH]c2c(Br)ccc(Cl)c2c1=O [Compound 12, 3-acetyl-8-bromo-5-chloro-2-(phenylthio)quinolin-4(1H)-one]	> 2000	> 2000	> 10000	> 2000	> 2000	> 2000	> 2000

Source: US11464770B2, “Anticancer pharmaceutical composition” (NATIONAL CANCER CENTER, priority 2016, dated 2022)
